Each molecule was assayed against T1, hNLRP3 (Homo sapiens, UniProt Q96P20) (assay: IL-1β production in PMA-differentiated THP-1 cells stimulated with gramicidin). Settings: gramicidin 5 μM, IL-1β in supernatant, Table 2.
T1 construct: THP-1 cells were purchased from the American Type Culture Collection; host or cells: THP-1 cells, PMA-differentiated
Assay type: cell-based
Protocol: Bioassay: IL-1β Production in PMA-Differentiated THP-1 Cells Stimulated with Gramicidin. Procedure 1:
Cell culture—THP-1 cells were purchased from the American Type Culture Collection and sub-cultured according to instructions from the supplier. Prior to experiments, cells were cultured in RPMI 1640 containing 10% heat inactivated FBS, penicillin (100 units/ml) and streptomycin (100 μg/ml), and maintained in log phase prior to experimental setup. Prior to the experiment THP-1 were treated with PMA (Phorbol 12-myristate 13-acetate) (10 μg/ml) for 24 hours. The day of the experiment the media was removed and attaching cells were treated with trypsin for 2 minutes, cells were then collected, washed with PBS (phosphate buffer saline), spin down, resuspended in 2% heat inactivated FBS with RPMI at a concentration of 1×10^6 cells/ml, and 100 ul was plated in a 96 well plate. Cells were incubated with compounds for 1 hours and then stimulated with Gramicidin (5 μM) (Enzo) for 2 hours. Cell free supernatant was collected and the production of IL-1β was evaluated by ELISA. Compounds were dissolved in dimethyl sulfoxide (DMSO) and added to the culture medium to achieve desired concentration (e.g. 100, 30, 10, 3, 1, 0.3 or 0.1 μM). A vehicle only control was run concurrently with each experiment. Final DMSO concentration was 1%.
THP-1 cells were purchased from the American Type Culture Collection and sub-cultured according to instructions from the supplier. Prior to experiments, cells were cultured in complete RPMI 1640 (containing 10% heat inactivated FBS, penicillin (100 units/ml) and streptomycin (100 μg/ml)), and maintained in log phase prior to experimental setup. Prior to the experiment THP-1 were treated with PMA (Phorbol 12-myristate 13-acetate) (20 ng/ml) for 16-18 hours. On the day of the experiment the media was removed and adherent cells were detached with trypsin for 5 minutes. Cells were then harvested, washed with complete RPMI 1640, spun down, resuspended in RPMI 1640 (containing 2% heat inactivated FBS, penicillin (100 units/ml) and streptomycin (100 μg/ml). The cells were plated in a 384-well plate at a density of 50,000 cells/well (final assay volume 50 μl). Compounds were dissolved in dimethyl sulfoxide (DMSO) and added to the culture medium to achieve desired concentration (e.g. 100, 33, 11, 3.7, 1.2, 0.41, 0.14, 0.046, 0.015, 0.0051, 0.0017 μM). Cells were incubated with compounds for 1 hour and then stimulated with gramicidin (5 μM) (Enzo) for 2 hours. Cell free supernatant was collected and the production of IL-1β was evaluated by HTRF (cisbio). A vehicle only control was run concurrently with each experiment. Final DMSO concentration was 0.38%.

T1 sequence (Q96P20 whole entry): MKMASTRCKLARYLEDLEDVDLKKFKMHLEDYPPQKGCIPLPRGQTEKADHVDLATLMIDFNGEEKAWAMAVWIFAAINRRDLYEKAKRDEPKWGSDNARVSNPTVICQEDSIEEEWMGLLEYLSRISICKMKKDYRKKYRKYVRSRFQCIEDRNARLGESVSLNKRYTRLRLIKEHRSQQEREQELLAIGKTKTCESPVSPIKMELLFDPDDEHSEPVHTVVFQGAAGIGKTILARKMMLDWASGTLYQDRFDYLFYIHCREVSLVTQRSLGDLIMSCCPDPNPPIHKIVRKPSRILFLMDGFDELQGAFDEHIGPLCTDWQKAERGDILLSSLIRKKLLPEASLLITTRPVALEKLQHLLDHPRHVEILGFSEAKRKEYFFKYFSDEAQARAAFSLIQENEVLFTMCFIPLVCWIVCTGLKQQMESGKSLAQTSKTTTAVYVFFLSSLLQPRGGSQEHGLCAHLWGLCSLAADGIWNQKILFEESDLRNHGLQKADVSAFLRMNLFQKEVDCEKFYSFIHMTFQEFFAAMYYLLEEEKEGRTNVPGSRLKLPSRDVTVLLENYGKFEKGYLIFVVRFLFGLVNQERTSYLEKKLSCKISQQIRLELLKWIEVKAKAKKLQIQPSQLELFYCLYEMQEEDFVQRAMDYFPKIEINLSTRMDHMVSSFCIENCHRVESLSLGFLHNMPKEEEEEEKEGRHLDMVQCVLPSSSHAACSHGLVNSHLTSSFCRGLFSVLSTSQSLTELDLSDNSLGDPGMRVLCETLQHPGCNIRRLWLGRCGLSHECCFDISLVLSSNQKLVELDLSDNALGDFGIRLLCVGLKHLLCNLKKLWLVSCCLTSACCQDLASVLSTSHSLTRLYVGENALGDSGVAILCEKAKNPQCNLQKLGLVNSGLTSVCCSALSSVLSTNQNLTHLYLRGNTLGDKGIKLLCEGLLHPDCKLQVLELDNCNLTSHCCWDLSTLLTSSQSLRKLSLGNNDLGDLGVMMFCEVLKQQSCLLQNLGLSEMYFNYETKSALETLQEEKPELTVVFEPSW

| IC50 [µM] | Compound |
| --- | --- |
| 1 to 5 | CC(C)(O)c1csc(S(=O)(=O)NC(=O)Nc2cccc3c2CCC3)c1 [Compound 191, N-(2,3-dihydro-1H-inden-4-ylcarbamoyl)-4-(2-hydroxypropan-2-yl) thiophene-2-sulfonamide] |
| 1 to 5 | O=C(Nc1cccc2c1CCC2)NS(=O)(=O)c1cc(C2(O)CC2)co1 [Compound 192, N-(2,3-dihydro-1H-inden-4-ylcarbamoyl)-4-(1-hydroxycyclopropyl) furan-2-sulfonamide] |
| 1 to 5 | O=C(Nc1c2c(cc3c1CCC3)CCC2)NS(=O)(=O)c1ncc(C2(O)CCCCC2)s1 [Compound 193, N-(1,2,3,5,6,7-hexahydros-indacen-4-ylcarbamoyl)-5-(1-hydroxycyclohexyl) thiazole-2-sulfonamide] |
| 1 to 5 | CC(C)c1cc(C#N)cc(C(C)C)c1NC(=O)NS(=O)(=O)c1ccc(C2(O)CC2)s1 [Compound 194, N-(4-cyano-2,6-diisopropylphenylcarbamoyl)-5-(1-hydroxycyclopropyl) thiophene-2-sulfonamide] |
| 1 to 5 | CC(C)c1ccc(F)c(C(C)C)c1NC(=O)NS(=O)(=O)c1ccc(C2(O)CC2)s1 [Compound 195, N-(3-fluoro-2,6-diisopropylphenylcarbamoyl)-5-(1-hydroxycyclopropyl) thiophene-2-sulfonamide] |
| < 1 | CC(C)c1cc(Cl)cc(C(C)C)c1NC(=O)NS(=O)(=O)c1ccc(C2(O)CC2)s1 [Compound 196, N-(4-chloro-2,6-diisopropylphenylcarbamoyl)-5-(1-hydroxycyclopropyl) thiophene-2-sulfonamide] |
| < 1 | O=C(Nc1c2c(cc3c1CCC3)CCC2)NS(=O)(=O)c1ncc(C2(O)CCC2)s1 [Compound 197, N-(1,2,3,5,6,7-hexahydros-indacen-4-ylcarbamoyl)-5-(1-hydroxycyclo-butyl)thiazole-2-sulfonamide] |
| < 1 | CC(C)c1cc(F)cc(C(C)C)c1NC(=O)NS(=O)(=O)c1ccc(C2(O)CC2)s1 [Compound 198, N-(4-fluoro-2,6-diisopropylphenylcarbamoyl)-5-(1-hydroxycyclopropyl) thiophene-2-sulfonamide] |
| 1 to 5 | O=C(Nc1c2c(c(Cl)c3c1CCC3)CCC2)NS(=O)(=O)c1ccc(C2(O)CC2)s1 [Compound 199, N-(8-chloro-1,2,3,5,6,7-hexahydros-indacen-4-ylcarbamoyl)-5-(1-hydroxycyclopropyl) thiophene-2-sulfonamide] |
| < 1 | O=C(Nc1c2c(c(F)c3c1CCC3)CCC2)NS(=O)(=O)c1ccc(C2(O)CC2)s1 [Compound 200] |
| 1 to 5 | CC(C)c1cccc(C(C)C)c1NC(=O)NS(=O)(=O)c1ccc(C2(O)CC2)s1 [Compound 201, N-(2,6-diisopropylphenylcarbamoyl)-5-(1-hydroxycyclopropyl) thiophene-2-sulfonamide] |
| < 1 | O=C(Nc1c2c(cc3c1CCC3)CCC2)NS(=O)(=O)c1ccc(C2(O)CC2)s1 [Compound 202, N-(1,2,3,5,6,7-hexahydros-indacen-4-ylcarbamoyl)-5-(1-hydroxycyclopropyl) thiophene-2-sulfonamide] |
| < 1 | CC(C)c1cc(F)cc(C(C)C)c1NC(=O)NS(=O)(=O)c1cc(C2(O)CC2)cs1 [Compound 204, N-(4-fluoro-2,6-diisopropylphenyl-carbamoyl)-4-(1-hydroxycyclo-propyl)thiophene-2-sulfonamide] |
| < 1 | CC(C)c1cc(F)cc(C(C)C)c1NC(=O)NS(=O)(=O)c1cc(C2(O)CC2)co1 [Compound 205, N-(4-fluoro-2,6-diisopropylphenyl-carbamoyl)-4-(1-hydroxycyclo-propyl)furan-2-sulfonamide] |
| < 1 | N#Cc1c2c(c(NC(=O)NS(=O)(=O)c3cc(C4(O)CC4)co3)c3c1CCC3)CCC2 [Compound 206, N-(8-cyano-1,2,3,5,6,7-hexahydros-indacen-4-ylcarbamoyl)-4-(1-hydroxycyclopropyl) furan-2-sulfonamide] |
| < 1 | O=C(Nc1c2c(c(F)c3c1CCC3)CCC2)NS(=O)(=O)c1cc(C2(O)CC2)co1 [Compound 207, N-(8-fluoro-1,2,3,5,6,7-hexahydros-indacen-4-ylcarbamoyl)-4-(1-hydroxycyclo-propyl)furan-2-sulfonamide] |
| < 1 | CC(C)(O)c1cnc(S(=O)(=O)NC(=O)Nc2c3c(c(F)c4c2CCC4)CCC3)s1 [Compound 209, N-(8-fluoro-1,2,3,5,6,7-hexahydros-indacen-4-ylcarbamoyl)-5-(2-hydroxypropan-2-yl)thiazole-2-sulfonamide] |

Further lines, the molecule ahead of its results:

| Compound | IC50 [µM] |
| --- | --- |
| CCc1cccc(CC)c1NC(=O)NS(=O)(=O)c1ncc(C(C)(C)O)s1 [Compound 172, N-(2,6-diethylphenylcarbamoyl)-5-(2-hydroxypropan-2-yl)thiazole-2-sulfonamide] | 1 to 5 |
| CCc1cccc(CC)c1NC(=O)NS(=O)(=O)c1cc(C(C)(C)O)cs1 [Compound 173, N-(2,6-diethylphenylcarbamoyl)-4-(2-hydroxypropan-2-yl)thiophene-2-sulfonamide] | 15 to 35 |
| CC(C)c1ccc2c(c1NC(=O)NS(=O)(=O)c1cc(C(C)(C)O)cs1)CCC2 [Compound 175, 4-(2-hydroxypropan-2-yl)-N-(5-isopropyl-2,3-dihydro-1H-inden-4-ylcarbamoyl) thiophene-2-sulfonamide] | 15 to 35 |
| CC(C)(O)c1ccc(S(=O)(=O)NC(=O)Nc2c3c(c(F)c4c2CCC4)CCC3)s1 [Compound 176, N-(8-fluoro-1,2,3,5,6,7-hexahydros-indacen-4-ylcarbamoyl)-5-(2-hydroxypropan-2-yl) thiophene-2-sulfonamide] | < 1 |
| N#Cc1c2c(c(NC(=O)NS(=O)(=O)c3ccc(C4(O)CC4)s3)c3c1CCC3)CCC2 [Compound 178, N-(8-cyano-1,2,3,5,6,7-hexahydros-indacen-4-ylcarbamoyl)-5-(1-hydroxycyclopropyl) thiophene-2-sulfonamide] | 1 to 5 |
| CC(C)c1ccc(Cl)c(C(C)C)c1NC(=O)NS(=O)(=O)c1ncc(C(C)(C)O)s1 [Compound 179, N-(3-chloro-2,6-diisopropylphenylcarbamoyl)-5-(2-hydroxypropan-2-yl)thiazole-2-sulfonamide] | 1 to 5 |
| CC(C)c1ccc(Cl)c(C(C)C)c1NC(=O)NS(=O)(=O)c1cc(C(C)(C)O)cs1 [Compound 180, N-(3-chloro-2,6-diisopropylphenylcarbamoyl)-4-(2-hydroxypropan-2-yl)thiophene-2-sulfonamide] | < 1 |
| CC(C)c1ccc(Cl)c(C(C)C)c1NC(=O)NS(=O)(=O)c1cc(C2(O)CC2)co1 [Compound 181, N-(3-chloro-2,6-diisopropylphenylcarbamoyl)-4-(1-hydroxycyclopropyl) furan-2-sulfonamide] | < 1 |
| COc1ccc2c(c1NC(=O)NS(=O)(=O)c1ncc(C(C)(C)O)s1)CCC2 [Compound 182, 5-(2-hydroxypropan-2-yl)-N-(5-methoxy-2,3-dihydro-1H-inden-4-ylcarbamoyl)thiazole-2-sulfonamide] | 1 to 5 |
| O=C(Nc1c2c(cc3c1CCC3)CCC2)NS(=O)(=O)c1ncc(C2(O)CCCC2)s1 [Compound 183] | < 1 |
| CC(C)c1cc(C#N)cc(C(C)C)c1NC(=O)NS(=O)(=O)c1ccc(C(C)(C)O)s1 [Compound 184, N-(4-cyano-2,6-diisopropylphenylcarbamoyl)-5-(2-hydroxypropan-2-yl) thiophene-2-sulfonamide] | < 1 |
| CC(C)c1ccc(F)c(C(C)C)c1NC(=O)NS(=O)(=O)c1ccc(C(C)(C)O)s1 [Compound 185, N-(3-fluoro-2,6-diisopropylphenylcarbamoyl)-5-(2-hydroxypropan-2-yl)thiophene-2-sulfonamide] | 1 to 5 |
| CC(C)c1cccc(C(C)C)c1NC(=O)NS(=O)(=O)c1ccc(C(C)(C)O)s1 [Compound 188, N-(2,6-diisopropylphenylcarbamoyl)-5-(2-hydroxypropan-2-yl) thiophene-2-sulfonamide] | 1 to 5 |
| CC(C)(O)c1ccc(S(=O)(=O)NC(=O)Nc2c3c(c(Cl)c4c2CCC4)CCC3)s1 [Compound 189, N-(8-chloro-1,2,3,5,6,7-hexahydros-indacen-4-ylcarbamoyl)-5-(2-hydroxypropan-2-yl) thiophene-2-sulfonamide] | < 1 |
| CC(C)(O)c1cnc(S(=O)(=O)NC(=O)Nc2cccc3c2CCC3)s1 [Compound 190, N-(2,3-dihydro-1H-inden-4-ylcarbamoyl)-5-(2-hydroxypropan-2-yl)thiazole-2-sulfonamide] | 1 to 5 |

Source: patent US11339136B2 (Novartis AG, priority 2016, dated 2022)
